Data: ChEMBL document CHEMBL1201862, “PubChem BioAssay data set” (2004)
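These data come from cells grown in 96-well plates and exposed to compound for 48 hours at five concentrations. At the GI50, growth is halved.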 The source made the active and inactive calls. Cut-off read from the data, not from the text of the source: active = GI50 up to about 1.1 µM and inactive = higher.

What was measured:
Assay in all cases: NCI-60 cell line screen, 48 h
[1] = tested on: HL-60
[2] = tested on: MCF7
[3] = tested on: MDA-MB-231
[4] = tested on: MDA-MB-435
[5] = tested on: MDA-N
[6] = tested on: NCI/ADR-RES
[7] = tested on: OVCAR-5
[8] = tested on: PC-3
[9] = tested on: SK-MEL-28
[10] = tested on: SK-MEL-2
[11] = tested on: SR
[12] = tested on: T47D
[13] = tested on: UO-31
[14] = tested on: Hs-578T
[15] = tested on: SK-MEL-5
[16] = tested on: SNB-75

Measured: GI50

COC(=S)OC1CC(n2cnc3c(N)ncnc32)OC1CO[Si](C)(C)C(C)(C)C (configuration not stated)
inactive: [1] > 100 µM | [2] 19.1 µM | [3] 18.8 µM | [4] 17 µM | [5] 18.5 µM | [6] 22.4 µM | [7] 20.6 µM | [8] 12.1 µM | [9] 28.8 µM | [10] 22.6 µM | [11] 17.5 µM | [12] 11.8 µM | [13] 16.6 µM

CCOC(=O)Cn1c(=O)c2cc(C)cc3c(Cl)nc4c(OC)c(OC)cc1c4c32
inactive: [1] > 100 µM | [14] 31.8 µM | [2] 72.8 µM | [3] > 100 µM | [4] > 100 µM | [5] > 100 µM | [6] > 100 µM | [7] > 100 µM | [8] > 100 µM | [9] > 100 µM | [10] > 100 µM | [15] > 100 µM | [16] 30.8 µM | [11] 50 µM | [13] > 100 µM

COc1cc(/C=C2\N=C(c3ccccc3)N(c3ccc(C(=O)c4ccccc4)cc3N3C(=O)/C(=C/c4cc(OC)c(OC)c(OC)c4)N=C3c3ccccc3)C2=O)cc(OC)c1OC
inactive: [1] 4.05 µM | [14] 17.9 µM | [2] 12.6 µM | [3] 16.9 µM | [4] 2.85 µM | [5] 2.73 µM | [6] 7.8 µM | [7] 30.8 µM | [8] 12.6 µM | [9] 18.7 µM | [10] 9.77 µM | [15] 9.33 µM | [16] 7.36 µM | [12] 4.93 µM | [13] 16 µM

COc1ccc(OC)c(SC(CC(=O)c2ccccc2)c2ccccc2)c1 (configuration not stated)
inactive: [1] > 100 µM | [14] 28.4 µM | [2] 3.14 µM | [3] 7.45 µM | [4] 13 µM | [6] 17.7 µM | [7] 18.4 µM | [8] 14.8 µM | [9] 17.5 µM | [10] 20.1 µM | [15] 13.8 µM | [16] 18.4 µM | [11] 7.6 µM | [12] 10.1 µM | [13] 12.1 µM

Oc1ccc(NCn2c(=S)sc3ccccc32)cc1
inactive: [1] 59.6 µM | [14] 50 µM | [2] 92.9 µM | [3] > 100 µM | [4] > 100 µM | [6] > 100 µM | [7] > 100 µM | [8] > 100 µM | [9] > 100 µM | [10] > 100 µM | [15] > 100 µM | [16] 54.8 µM | [12] 34.4 µM | [13] 89.9 µM
